Assay results reported in patent publication US9062051B2, “Compounds and pharmaceutical compositions thereof for the treatment of proliferative disorders” (GALAPAGOS NV, priority 2014, dated 2015).
Like-named read-outs stand apart in the source and are kept apart here.

What was measured:
Format in all cases: biochemical
EphB4 = target: T1, EphB4 (UniProt Ref: Q541P7) (Homo sapiens, UniProt P54760); assay: EphB4 assay (Reaction Biology HotSpot radioactive kinase assay); details: ATP 10 μM; read-out: EphB4 potency IC50
T1 construct: purchased Reaction Biology
T1 sequence (P54760 16-987): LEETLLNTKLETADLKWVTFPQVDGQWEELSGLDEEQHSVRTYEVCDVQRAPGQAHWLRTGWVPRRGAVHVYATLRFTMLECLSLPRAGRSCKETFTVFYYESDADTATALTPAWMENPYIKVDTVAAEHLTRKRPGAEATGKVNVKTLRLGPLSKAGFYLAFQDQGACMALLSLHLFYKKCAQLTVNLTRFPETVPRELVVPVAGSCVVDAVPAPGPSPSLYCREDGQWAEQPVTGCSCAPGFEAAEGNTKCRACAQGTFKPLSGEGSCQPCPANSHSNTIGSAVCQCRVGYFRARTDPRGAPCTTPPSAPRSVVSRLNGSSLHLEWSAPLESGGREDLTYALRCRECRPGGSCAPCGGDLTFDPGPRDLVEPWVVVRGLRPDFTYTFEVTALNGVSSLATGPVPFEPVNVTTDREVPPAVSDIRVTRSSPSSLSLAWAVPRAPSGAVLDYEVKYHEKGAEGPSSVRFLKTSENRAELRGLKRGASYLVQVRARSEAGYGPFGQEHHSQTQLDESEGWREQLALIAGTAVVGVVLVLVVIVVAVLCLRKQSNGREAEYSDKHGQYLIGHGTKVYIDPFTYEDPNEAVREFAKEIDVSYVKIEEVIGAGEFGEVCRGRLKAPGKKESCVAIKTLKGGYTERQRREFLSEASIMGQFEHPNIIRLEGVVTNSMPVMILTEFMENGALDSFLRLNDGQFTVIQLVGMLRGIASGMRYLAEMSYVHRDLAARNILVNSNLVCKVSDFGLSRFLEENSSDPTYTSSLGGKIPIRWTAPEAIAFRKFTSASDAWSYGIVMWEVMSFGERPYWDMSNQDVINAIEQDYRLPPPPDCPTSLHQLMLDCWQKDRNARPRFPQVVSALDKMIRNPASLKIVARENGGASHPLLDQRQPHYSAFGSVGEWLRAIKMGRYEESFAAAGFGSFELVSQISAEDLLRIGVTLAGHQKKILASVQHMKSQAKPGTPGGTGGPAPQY
Procedure: Inhibition of EphB4 (UniProt Ref: Q541P7) by a test compound is determined by a commercially available Reaction Biology proprietary nanoliter radioactive HotSpot^SM assay (Reaction Biology, One great valley parkway, Suite 2, Malvern Pa., 19355, USA). The principle of the assay consists of the measurement of incorporated ^33P into poly[Glu:Tyr] (4:1) (0.2 mg/mL) when the substrate is phosphorylated by the enzyme using [^33P]-γ-ATP and ATP (10 μM).
To determine the IC50, a serial dilution of compound is tested starting from 10 or 3 μM (highest dilution) with a 1/3 dilution.

EphA2 = target: T2, EphA2 (UniProt Ref: P29317) (Homo sapiens, UniProt P29317); assay: EphA2 assay (Reaction Biology HotSpot radioactive kinase assay); details: ATP 10 μM; read-out: EphA2 potency IC50
T2 construct: purchased Reaction Biology
Procedure, shortened: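 Radiometric HotSpot assay measuring ^33P incorporation from [^33P]-γ-ATP into poly[Glu:Tyr] (4:1) (0.2 mg/mL) with 10 μM ATP. IC50 from serial 1/3 dilutions starting at 10 or 3 μM.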

Recombinant EphA7 = target: T3, Recombinant EphA7 (Homo sapiens, UniProt Q15375); assay: EphA7 assay (33P incorporation into poly GT, filter plate)
T3 construct: purchased Carna 08-126
Procedure: The principle of the assay consists of the measurement of incorporated ^33P into the substrate poly GT when phosphorylated by the enzyme EphA7 using [^33P]-γ-ATP and ATP. Unincorporated ^33P is removed by loading the samples on a filter plate (using a harvester, Perkin Elmer) and 6 subsequent washing steps. ^33P incorporated in polyGT is measured on a Topcount after addition of microscint to the filter plates (Perkin Elmer).
Recombinant EphA7 (Carna Cat#08-126, 2 ng per well) was incubated with 0.1 mg/mL Poly(Glu,Tyr)sodium salt (4:1), MW 20 000-50 000 (Sigma catalog number P0275) in kinase reaction buffer (10 mM MOPS pH 7.2, 5 mM DTT, 0.01% Triton-X100, 5 mM MnCl2, 0.5 mM Na3VO4, 5 mM beta-glycerolphosphate), 0.15 μM non-radioactive ATP, 0.125 μCi/25 μl ^33P-gamma-ATP (Perkin Elmer, catalog number NEG602K) final concentrations with or without 5 μL containing test compound or vehicle (DMSO, 1% final concentration), in a total volume of 25 μL, in a polypropylene 96-well plate (Greiner, V-bottom). After 90 min at 30° C., reactions were stopped by adding of 25 μL/well of 150 mM phosphoric acid. All of the terminated kinase reaction was transferred to prewashed (75 mM phosphoric acid) 96 well filter plates (Perkin Elmer catalog number 6005177) using a cell harvester (Perkin Elmer). Plates were washed 6 times with 300 μL per well of a 75 mM phosphoric acid solution and the bottom of the plates was sealed. 40 μL/well of Microscint-20 was added, the top of the plates was sealed and readout was performed using the Topcount (Perkin Elmer). The ability of a test compound to inhibit the kinase activity was determined using counts per minutes (cpm) measured by the Topcount as:
Cpm (cpd): cpm determined for sample with test compound present
Cpm (control): cpm determined for sample with positive control inhibitor (10 μM staurosporine)
Cpm (vehicle): cpm determined in the presence of vehicle (1% DMSO)
Dose dilution series were prepared for the compounds enabling the testing of dose-response effects in the EphA7 assay and the calculation of the IC50 for each compound. Each compound was routinely tested at concentration of 20 μM followed by a 1/5 serial dilution, 10 points in a final concentration of 1% DMSO. When potency of compound series increased, more dilutions may be prepared and/or the top concentration may be lowered (e.g. 5 μM, 1 μM).

[1] = EphA7 potency, 0.15 μM ATP, read-out: IC50

T3 sequence (Q15375 579-998 limits assumed): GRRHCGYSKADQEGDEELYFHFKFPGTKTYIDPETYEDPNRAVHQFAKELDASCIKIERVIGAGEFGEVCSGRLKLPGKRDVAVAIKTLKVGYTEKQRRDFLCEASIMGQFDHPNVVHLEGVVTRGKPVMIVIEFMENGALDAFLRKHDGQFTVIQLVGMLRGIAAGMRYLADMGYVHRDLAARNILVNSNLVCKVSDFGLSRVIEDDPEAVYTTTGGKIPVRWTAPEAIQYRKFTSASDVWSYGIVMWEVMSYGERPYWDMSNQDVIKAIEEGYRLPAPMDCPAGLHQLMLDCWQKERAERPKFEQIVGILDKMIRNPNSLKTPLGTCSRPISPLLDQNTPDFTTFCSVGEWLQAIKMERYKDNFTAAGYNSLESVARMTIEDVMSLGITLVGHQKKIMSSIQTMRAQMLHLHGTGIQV
T2 sequence (P29317 24-976): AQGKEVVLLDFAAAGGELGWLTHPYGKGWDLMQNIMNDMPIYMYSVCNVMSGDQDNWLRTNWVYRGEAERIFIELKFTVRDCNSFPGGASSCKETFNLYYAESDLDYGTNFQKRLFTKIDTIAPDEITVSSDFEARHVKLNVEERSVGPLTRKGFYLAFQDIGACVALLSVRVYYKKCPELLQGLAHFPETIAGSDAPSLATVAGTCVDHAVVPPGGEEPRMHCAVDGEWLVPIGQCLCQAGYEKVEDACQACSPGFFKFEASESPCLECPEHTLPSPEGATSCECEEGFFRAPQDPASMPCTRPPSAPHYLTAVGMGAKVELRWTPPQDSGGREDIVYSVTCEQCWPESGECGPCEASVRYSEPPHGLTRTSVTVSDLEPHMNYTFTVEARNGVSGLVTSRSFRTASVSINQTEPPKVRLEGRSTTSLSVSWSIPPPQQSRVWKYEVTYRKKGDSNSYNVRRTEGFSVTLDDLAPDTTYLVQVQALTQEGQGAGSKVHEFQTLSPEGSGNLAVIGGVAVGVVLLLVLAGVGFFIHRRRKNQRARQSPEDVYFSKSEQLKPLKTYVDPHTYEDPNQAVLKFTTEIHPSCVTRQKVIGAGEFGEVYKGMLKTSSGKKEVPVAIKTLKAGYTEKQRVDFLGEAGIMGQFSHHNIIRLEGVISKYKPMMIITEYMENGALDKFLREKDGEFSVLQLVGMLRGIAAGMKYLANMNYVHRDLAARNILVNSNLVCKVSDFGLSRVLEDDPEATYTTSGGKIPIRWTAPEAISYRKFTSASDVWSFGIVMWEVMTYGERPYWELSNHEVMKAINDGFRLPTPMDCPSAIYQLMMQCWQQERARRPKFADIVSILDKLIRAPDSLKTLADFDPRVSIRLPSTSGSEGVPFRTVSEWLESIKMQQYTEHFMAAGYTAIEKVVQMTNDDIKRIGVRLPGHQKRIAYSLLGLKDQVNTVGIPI

Row | Compound | IC50 (EphB4) [nM] | IC50 (EphA2) [nM] | IC50 (Recombinant EphA7; [1]) [nM] | IC50 (Recombinant EphA7; comparative compounds, read-out: EphA7 potency IC50) [nM]
1 | Cc1ccc(NC(=O)c2cccc(C(F)(F)F)c2)cc1-c1ccc2c(C(O)CN3CCOCC3)n[nH]c2n1 (centres unmarked) [Compound 2, N-{3-[3-(1-Hydroxy-2-morpholin-4-yl-ethyl)-1H-pyrazolo[3,4-b]pyridin-6-yl]-4-methyl-phenyl}-3-trifluoromethyl-benzamide] | 0.01 to 25 | 50 to 100 |  | 
2 | Cc1cccc(C(=O)Nc2ccc(C)c(-c3ccc4c(C(O)CN5CCOCC5)n[nH]c4n3)c2)c1 (centres unmarked) [Compound 3, N-{3-[3-(1-Hydroxy-2-morpholin-4-yl-ethyl)-1H-pyrazolo[3,4-b]pyridin-6-yl]-4-methyl-phenyl}-3-methyl-benzamide] | 0.01 to 25 |  | > 1000 | 
3 | COc1cc(OC)cc(C(=O)Nc2ccc(C)c(-c3ccc4c(C(O)CN5CCOCC5)n[nH]c4n3)c2)c1 (centres unmarked) [Compound 4, N-{3-[3-(1-Hydroxy-2-morpholin-4-yl-ethyl)-1H-pyrazolo[3,4-b]pyridin-6-yl]-4-methyl-phenyl}-3,5-dimethoxy-benzamide] | 25 to 50 | > 100 | > 1000 | 
4 | Cc1ccc(C(=O)Nc2cccc(C(F)(F)F)c2)cc1-c1ccc2c(C(O)CN3CCOCC3)n[nH]c2n1 (centres unmarked) [Compound 5, 3-[3-(1-Hydroxy-2-morpholin-4-yl-ethyl)-1H-pyrazolo[3,4-b]pyridin-6-yl]-4-methyl-N-(3-trifluoromethyl-phenyl)-benzamide] | 25 to 50 | 0.01 to 25 | 250 to 500 | 
5 | Cc1ccc(NC(=O)c2cccc(N(C)C)c2)cc1-c1ccc2c(C(O)CN3CCOCC3)n[nH]c2n1 (centres unmarked) [Compound 6, 3-Dimethylamino-N-{3-[3-(1-hydroxy-2-morpholin-4-yl-ethyl)-1H-pyrazolo[3,4-b]pyridin-6-yl]-4-methyl-phenyl}-benzamide] | 25 to 50 | 50 to 100 | > 1000 | 
6 | COc1cc(OC)cc(C(=O)Nc2ccc(C)c(-c3ccc4c(C(C)O)n[nH]c4n3)c2)c1 (centres unmarked) [Compound 9, N-{3-[3-(1-Hydroxy-ethyl)-1H-pyrazolo[3,4-b]pyridin-6-yl]-4-methyl-phenyl}-3,5-dimethoxy-benzamide] | 25 to 50 | 25 to 50 | > 1000 | 
7 | COc1cc(OC)cc(C(=O)Nc2ccc(C)c(-c3ccc4c(C)n[nH]c4n3)c2)c1 [Compound 11, 3,5-Dimethoxy-N-[4-methyl-3-(3-methyl-1H-pyrazolo[3,4-b]pyridin-6-yl)-phenyl]-benzamide] | 0.01 to 25 | 0.01 to 25 | > 1000 | 
8 | CCc1n[nH]c2nc(-c3cc(NC(=O)c4cc(OC)cc(OC)c4)cnc3C)ccc12 [Compound 13, N-[5-(3-Ethyl-1H-pyrazolo[3,4-b]pyridin-6-yl)-6-methyl-pyridin-3-yl]-3,5-dimethoxy-benzamide] | 25 to 50 | 50 to 100 | > 1000 | 
9 | Cc1cc(C)cc(C(=O)Nc2ccc(C)c(-c3ccc4c(CO)n[nH]c4n3)c2)c1 [Compound 16, N-[3-(3-Hydroxymethyl-1H-pyrazolo[3,4-b]pyridin-6-yl)-4-methyl-phenyl]-3,5-dimethyl-benzamide] | 0.01 to 25 | 0.01 to 25 | > 1000 | 
10 | COc1cc(OC)cc(C(=O)Nc2cnc(C)c(-c3ccc4c(C)n[nH]c4n3)c2)c1 [Compound 17, 3,5-Dimethoxy-N-[6-methyl-5-(3-methyl-1H-pyrazolo[3,4-b]pyridin-6-yl)-pyridin-3-yl]-benzamide] | 25 to 50 | 50 to 100 |  | 
11 | CCc1n[nH]c2nc(-c3cc(NC(=O)c4cc(C)cc(OCCN5CCOCC5)c4)ccc3C)ccc12 [Compound 20, N-[3-(3-Ethyl-1H-pyrazolo[3,4-b]pyridin-6-yl)-4-methyl-phenyl]-3-methyl-5-(2-morpholin-4-yl-ethoxy)-benzamide] | 0.01 to 25 | 0.01 to 25 | 500 to 1000 | 
12 | CCc1n[nH]c2nc(-c3cc(NC(=O)c4cc(C)cc(OCCOC)c4)ccc3C)ccc12 [Compound 21, N-[3-(3-Ethyl-1H-pyrazolo[3,4-b]pyridin-6-yl)-4-methyl-phenyl]-3-(2-methoxy-ethoxy)-5-methyl-benzamide] | 0.01 to 25 | 25 to 50 | > 1000 | 
13 | COc1cc(OC)cc(C(=O)Nc2ccc(C)c(-c3ccc4c(C5(O)CC5)n[nH]c4n3)c2)c1 [Compound 29, N-{3-[3-(1-Hydroxy-cyclopropyl)-1H-pyrazolo[3,4-b]pyridin-6-yl]-4-methyl-phenyl}-3,5-dimethoxy-benzamide] |  | 50 to 100 | > 1000 | 
14 | Cc1ccc(NC(=O)c2cccc(C(F)(F)F)c2)cc1-c1ccc2c(C(C)O)n[nH]c2n1 (centres unmarked) [Compound 35, N-{3-[3-(1-Hydroxy-ethyl)-1H-pyrazolo[3,4-b]pyridin-6-yl]-4-methyl-phenyl}-3-trifluoromethyl-benzamide] | 25 to 50 | 25 to 50 | > 1000 | 
15 | CCc1n[nH]c2nc(-c3cc(NC(=O)c4cc(OC)cc(C(F)(F)F)c4)cnc3C)ccc12 [Compound 49, N-[5-(3-Ethyl-1H-pyrazolo[3,4-b]pyridin-6-yl)-6-methyl-pyridin-3-yl]-3-methoxy-5-trifluoromethyl-benzamide] | > 100 |  | > 1000 | 
16 | CCc1n[nH]c2nc(-c3cc(NC(=O)c4cc(C)cc(C)c4)cnc3C)ccc12 [Compound 50, N-[5-(3-Ethyl-1H-pyrazolo[3,4-b]pyridin-6-yl)-6-methyl-pyridin-3-yl]-3,5-dimethyl-benzamide] | 0.01 to 25 | 50 to 100 | 500 to 1000 | 
17 | Cc1ccc(NC(=O)c2cccc(C(F)(F)F)c2)cc1-c1ccc2c([C@H](C)O)n[nH]c2n1 [Compound 55, N-{3-[3-((S)-1-Hydroxy-ethyl)-1H-pyrazolo[3,4-b]pyridin-6-yl]-4-methyl-phenyl}-3-trifluoromethyl-benzamide] | 0.01 to 25 | 0.01 to 25 | 500 to 1000 | 
18 | Cc1ccc(NC(=O)c2cccc(C(F)(F)F)c2)cc1-c1cc(C)c2c(N)n[nH]c2n1 [Compound A, N-(3-(3-amino-4-methyl-1H-pyrazolo[3,4-b]pyridin-6-yl)-4-methylphenyl)-3-(trifluoromethyl)benzamide] |  |  |  | > 1000
